Data on 12 compounds can be found in patent US8618289B2 (Ambit Biosciences Corporation, priority 2008, dated 2013).

The term IC50 denotes the concentration that inhibits the measured activity by half. What is called EC50 is the concentration at which the effect is half-maximal.

Assay [1] has as its system MEK1 phosphorylation in the A375 human melanoma cell line. Briefly: cells. The conditions noted are these: A-375, read-out: pMEK IC50.
Experimental: A375 cells (from American Type Culture Collection) were plated at 50,000 cells per well in DMEM (Mediatech) with 10% fetal bovine serum (Omega Scientific) into a 96 well plate and incubated overnight in a 37° C. incubator with 10% CO2. The cells were then washed with PBS and the medium replaced with 0.5% FBS for incubation overnight. […] The cells were incubated with compound or control for two hours at 37° C. The compound solution was aspirated off and the cells washed with cold PBS. […] The plate was centrifuged for 30 minutes to pellet out the cell debris. The cleared lysates were transferred to a 96-well Nunc plate and the ELISA protocol described by the manufacturer in Catalog #KHO0321 or KHO0291 was followed.
In another assay the test system is A375 cells. Briefly: cells. The conditions noted are these: Homo sapiens, A-375, read-out: A375 Viability EC50.

SMILES strings stand for the structures.

Experimental for A375 cells: The following day, the medium was replaced with 0.5% FBS in M3 for overnight incubation. […] The cells were incubated with compound or control for 72 hours at 37° C. under 10% CO2. Following incubation, Cell Titer Blue reagent (Promega) was added to each well containing compounds or controls, and then incubated for 3 hours at 37° C. under 10% CO2. Proliferation was measured by fluorescence with excitation at 560 nm and emission at 590 nm using SoftMax Pro.

As to `COc1cc2c(Oc3cccc(NC(=O)Nc4cc(C(C)(C)C)on4)c3)ncnc2cc1OC[C@H](O)CN1CCN(C)CC1` [Ex 100, (R)-1-(5-tert-butylisoxazol-3-yl)-3-(3-(7-(2-hydroxy-3-(4-methylpiperazin-1-yl)propoxy)-6-methoxyquinazolin-4-yloxy)phenyl)urea], the IC50 in assay [1] was under 250 nM. The EC50 with A375 cells is under 250 nM.

On to `COc1cc2ncnc(Oc3cccc(NC(=O)Nc4cc(C(C)C)no4)c3)c2cc1OC` [Ex 122, 1-(3-(6,7-dimethoxyquinazolin-4-yloxy)phenyl)-3-(3-isopropylisoxazol-5-yl)urea], for which, in assay [1], the IC50 fell in the range of 250 to 500 nM. Also, the EC50 with A375 cells was over 1000 nM.

As for `COCCOc1cc2ncnc(Oc3cccc(NC(=O)Nc4ccc(OC)c(C(F)(F)F)c4)c3)c2cc1OC` [Ex 139, 1-(4-methoxy-3-(trifluoromethyl)phenyl)-3-(3-(6-methoxy-7-(2-methoxyethoxy)quinazolin-4-yloxy)phenyl)urea], in assay [1], the 50% inhibitory concentration (IC50) fell in the range of 250 to 500 nM. Besides, the EC50 in the assay with A375 cells is over 1000 nM.

Regarding `COc1cc2ncnc(Oc3cccc(NC(=O)Nc4cc(C(C)(C)C)on4)c3)c2cc1OCCCN1CCOCC1` [Ex 22, 1-(5-tert-butylisoxazol-3-yl)-3-(3-(7-methoxy-6-(3-morpholinopropoxy)quinazolin-4-yloxy)phenyl)urea], the IC50 in assay [1] is under 250 nM. Further, the EC50 in the assay on A375 cells is under 250 nM.

`COCC(C)(C)c1cc(NC(=O)Nc2cccc(Oc3ncnc4cc(OC)c(OC)cc34)c2)on1` [Ex 128, 1-(3-(6,7-dimethoxyquinazolin-4-yloxy)phenyl)-3-(3-(1-methoxy-2-methylpropan-2-yl)isoxazol-5-yl)urea]: the IC50 in assay [1] lay within 500 to 1000 nM. Further, the EC50 in the assay with A375 cells is over 1000 nM.

As to `COc1cc2ncnc(Oc3cccc(NC(=O)Nc4cc(C(F)(F)F)n(-c5ccccc5)n4)c3)c2cc1OC` [Ex 169, 1-[3-(6,7-dimethoxyquinazolin-4-yloxy)phenyl]-3-[1-phenyl-5-(trifluoromethyl)-1H-pyrazol-3-yl]urea], in assay [1], the IC50 fell in the range of 250 to 500 nM. The EC50 in the assay on A375 cells is over 1000 nM.

With `COc1ccc(NC(=O)Nc2cccc(Oc3ncnc4cc(OC)c(OC)cc34)c2)cc1Cl` [Ex 180, 1-(3-chloro-4-methoxyphenyl)-3-(3-(6,7-dimethoxyquinazolin-4-yloxy)phenyl)urea], the IC50 in assay [1] is over 1000 nM. Moreover, in the assay on A375 cells, the EC50 is over 1000 nM.

In the case of `COc1cc2ncnc(Oc3cccc(NC(=O)Nc4cccc(C(F)(F)F)c4)c3)c2cc1OC` [Ex 181, 1-(3-(6,7-dimethoxyquinazolin-4-yloxy)phenyl)-3-(3-(trifluoromethyl)phenyl)urea], the IC50 in assay [1] was over 1000 nM. In addition, the EC50 in the assay with A375 cells was over 1000 nM.

Consider `COc1cc2ncnc(Sc3cccc(NC(=O)Nc4cc(C(C)(C)C)on4)c3)c2cc1OCCCS(C)(=O)=O` [Ex 64, 1-(5-tert-butylisoxazol-3-yl)-3-(3-(7-methoxy-6-(3-(methylsulfonyl)propoxy)quinazolin-4-ylthio)phenyl)urea], for which the 50% inhibitory concentration (IC50) in assay [1] was under 250 nM. Besides, the EC50 with A375 cells is 250 to 500 nM.

Consider `COc1cc2ncnc(Oc3cccc(NC(=O)Nc4cc(C(F)(F)F)nn4C)c3)c2cc1OC` [Ex 164, 1-[3-(6,7-dimethoxyquinazolin-4-yloxy)phenyl]-3-[1-methyl-3-(trifluoromethyl)-1H-pyrazol-5-yl]urea], for which the IC50 in assay [1] was 250 to 500 nM. In addition, the EC50 with A375 cells is over 1000 nM.

For the compound `COc1cc2ncnc(Sc3cccc(NC(=O)Nc4cc(C(C)(C)C)nn4-c4ccccc4)c3)c2cc1OC` [Ex 154, 1-(3-tert-butyl-1-phenyl-1H-pyrazol-5-yl)-3-(3-(6,7-dimethoxyquinazolin-4-ylthio)phenyl)urea], the IC50 in assay [1] was under 250 nM.

Consider `COc1cc2nc(Cl)nc(Sc3cccc(NC(=O)Nc4cc(C(C)(C)C)on4)c3)c2cc1OC` [Ex 89, 1-(5-tert-butylisoxazol-3-yl)-3-(3-(2-chloro-6,7-dimethoxyquinazolin-4-ylthio)phenyl)urea], for which the IC50 in assay [1] is over 1000 nM.
